Test results: PMC10079235 (PLOS Neglected Tropical Diseases, 2023)
Structures can show the parent of a compound that is named as a salt. Where two headings read alike, the source gives them in different places.

How the values were obtained:
[1] = system: HCT-8/NC(NTZ) cells; test: MTS cytotoxicity (drug tolerance) assay; conditions: for TC50: human, 41 h
Experimental: (§1) Host cell drug tolerance to specified inhibitors was evaluated by 3-(4,5-dimethylthiazol-2-yl)-5-(3-carboxymethoxyphenyl)-2-(4-sulfophenyl)-2H-tetrazolium (MTS) assay. WT and transgenic host cells were seeded in 96-well plates (10,000 cells/well) and cultured for 24 h, followed by the addition of specified compounds at serially diluted concentrations and continued culture for 41 h. After 3 washes with serum-free medium, MTS solution (Saint-Bio, Shanghai, China) was added into the plates (20 μL/well) and incubated at 37°C for 2 h. Optical density at 490 nm (OD490) was measured using a Synergy LX multi-mode reader (BioTek, Winooski, VT). Drug tolerance was indicated by half-maximal cytotoxic concentrations (TC50 values) calculated by nonlinear regression using 4PL model. Selectivity index (SI) for each compound was determined by the ratio between TC50 and EC50 values (SI = TC50/EC50).
(§2) Surviving cells were allowed to recover in drug-free medium for 3–5 d to near confluence (round 1). The selection/recovery cycle were repeated once (round 2). […] Finally, all cells were cultured at the final selection concentrations of PTX or NTZ for ≥7 d, followed by culture in drug-free medium for 14 d. At this time point, cells were used for cytotoxicity and efficacy assays or cryopreserved in a liquid nitrogen tank. The resulting cell lines after PTX or NTZ selection were designated as WT(PTX), NC(PTX) and MDR1(PTX), or WT(NTZ), NC(NTZ) and MDR1(NTZ), respectively (Tables 1 and S2).

[2] = system: HCT-8/WT(NTZ) cells; test: MTS cytotoxicity (drug tolerance) assay; conditions: for TC50: human, 41 h
Experimental: as §1, §2

[3] = system: HCT-8/MDR1(PTX) cells; conditions: for TC50: MDR1(PTX) cells; for Pct change of TC50 (vs NC): MDR1(PTX) vs NC cells
Experimental: as §1
(§3) Surviving cells were allowed to recover in drug-free medium for 3–5 d to near confluence (round 1). The selection/recovery cycle were repeated once (round 2). […] The resulting cell lines after PTX or NTZ selection were designated as WT(PTX), NC(PTX) and MDR1(PTX), or WT(NTZ), NC(NTZ) and MDR1(NTZ), respectively (Tables 1 and S2).

[4] = system: HCT-8/WT(PTX) cells; test: MTS cytotoxicity (drug tolerance) assay; conditions: for TC50: human, 41 h
Experimental: as §1, §3

[5] = system: HCT-8/MDR1(NTZ) cells; test: MTS cytotoxicity (drug tolerance) assay; conditions: for TC50: MDR1(NTZ) cells
Experimental: as §1, §3

[6] = system: HCT-8/NC(PTX) cells; test: MTS cytotoxicity (drug tolerance) assay; conditions: for TC50: human, 41 h
Experimental: as §1, §3

[7] = system: HCT-8/WT cells; test: MTS cytotoxicity (drug tolerance) assay; conditions: for TC50: WT cells, no drug selection, MTS assay
Experimental: as §1

[8] = system: HCT-8/NC cells; conditions: human, 41 h
[9] = system: HCT-8/MDR1 cells; test: MTS cytotoxicity (drug tolerance) assay; conditions: for TC50: MDR1 cells, no drug selection, MTS assay
[10] = system: Cryptosporidium parvum; test: Anti-cryptosporidial efficacy assay (44-h infection/qRT-PCR); conditions: for On-target (Eon) rate at EC50 / Off-target (Eoff) rate at EC50: MDR1(PTX) cell model; for On-target (Eon) rate at EC50: Eq 2; for Off-target (Eoff) rate at EC50: from Pct changes of EC50 and TC50 (Eq 1); for Action on parasite target (on-target) conclusion: MDR1-transgenic host cell model; for Eoff, proportion of off-parasite-target effect / Eon, proportion of on-parasite-target effect: MDR1(PTX) vs. NC model, Eq 3 and 4
[11] = Cryptosporidium parvum, MDR1, read-out: Antiparasitic efficacy (EC50), C. parvum cultured in MDR1(PTX) host cells
[12] = Cryptosporidium parvum, read-out: Antiparasitic efficacy (EC50), C. parvum cultured in NC host cells
[13] = Cryptosporidium parvum, read-out: Antiparasitic efficacy (EC50), C. parvum cultured in WT host cells

COc1cccc2c1C(=O)c1c(O)c3c(c(O)c1C2=O)C[C@@](O)(C(C)=O)C[C@@H]3O[C@H]1C[C@H](N)[C@H](O)[C@H](C)O1 [Daunorubicin, Daunorubicin HCl]
Fold increase of TC50 NC(NTZ) vs. NC [1]: 0.93
TC50 [1]: 3.85 µM
Fold increase of TC50 WT(NTZ) vs. WT [2]: 1.05
TC50 [2]: 4.09 µM
TC50 ([3]; after selection by PTX): 10.23 µM
Fold change of TC50 MDR1(PTX) vs. NC ([3]; after selection by PTX): 2.46
Fold change of TC50 MDR1(PTX) vs. MDR1 ([3]; after selection by PTX vs parent cell line): 2.59
Fold change of TC50 MDR1(PTX)/NC(PTX) ([3]; ratio of TC50): 2.53
Fold change of TC50 WT(PTX) vs. WT [4]: 0.99
TC50 [4]: 3.88 µM
TC50 ([5]; after selection by NTZ): 3.93 µM
Fold increase of TC50 MDR1(NTZ) vs. NC ([5]; after selection by NTZ): 0.94
Fold increase of TC50 MDR1(NTZ) vs. MDR1 ([5]; after selection by NTZ vs parent cell line): 0.99
Fold change of TC50 NC(PTX) vs. NC [6]: 0.97
TC50 [6]: 4.05 µM
TC50 [7]: 3.91 µM
TC50 [8]: 4.16 µM
TC50 [9]: 3.95 µM
Fold change of TC50 MDR1/NC ([9]; ratio of TC50, MDR1 vs NC cells): 0.95

COc1cccc2c1C(=O)c1c(O)c3c(c(O)c1C2=O)C[C@@](O)(C(=O)CO)C[C@@H]3O[C@H]1C[C@H](N)[C@H](O)[C@H](C)O1 [Doxorubicin, Doxorubicin HCl]
TC50 [1]: 4.21 µM
TC50 [2]: 4.18 µM
Pct change of TC50 (vs NC) [3]: 140.3%
TC50 [4]: 4.24 µM
TC50 ([5]; after selection by NTZ): 6.90 µM
TC50 [6]: 4.15 µM
EC50 [10, 11]: 1.95 µM
EC50 [10, 12]: 1.19 µM
EC50 [10, 13]: 1.18 µM
On-target (Eon) rate at EC50 [10]: 54.5%
On-target (Eon) rate at EC50 ([10]; listed as DXR): 54.5%
Off-target (Eoff) rate at EC50 [10]: 45.5%
Action on parasite target (on-target) conclusion [10]: partially on-target
Eoff, proportion of off-parasite-target effect ([10]; at EC10): 26.90%
Eon, proportion of on-parasite-target effect ([10]; at EC10): 73.10%
Eoff, proportion of off-parasite-target effect ([10]; at EC20): 32.80%
Eon, proportion of on-parasite-target effect ([10]; at EC20): 67.20%
Eoff, proportion of off-parasite-target effect ([10]; at EC30): 37.30%
Eon, proportion of on-parasite-target effect ([10]; at EC30): 62.70%
Eoff, proportion of off-parasite-target effect ([10]; at EC40): 41.30%
Eon, proportion of on-parasite-target effect ([10]; at EC40): 58.70%
Eoff, proportion of off-parasite-target effect ([10]; at EC50): 45.3%
Eon, proportion of on-parasite-target effect ([10]; at EC50): 54.7%
Eoff, proportion of off-parasite-target effect ([10]; at EC60): 49.60%
Eon, proportion of on-parasite-target effect ([10]; at EC60): 50.40%
Eoff, proportion of off-parasite-target effect ([10]; at EC80): 61.40%
Eon, proportion of on-parasite-target effect ([10]; at EC80): 38.60%
Eoff, proportion of off-parasite-target effect ([10]; at EC90): 72.90%
Eon, proportion of on-parasite-target effect ([10]; at EC90): 27.10%
TC50 [7]: 4.03 µM
TC50 [8]: 4.34 µM
TC50 [9]: 6.67 µM

Ivermectin
On-target (Eon) rate at EC50 [10]: 77.1%
On-target (Eon) rate at EC50 ([10]; listed as IVM): 77.1%
Off-target (Eoff) rate at EC50 [10]: 22.9%
Action on parasite target (on-target) conclusion [10]: partially on-target
Eoff, proportion of off-parasite-target effect ([10]; at EC10): 18.40%
Eon, proportion of on-parasite-target effect ([10]; at EC10): 81.60%
Eon, proportion of on-parasite-target effect ([10]; at EC10, listed as IVM): 81.6%
Eoff, proportion of off-parasite-target effect ([10]; at EC20): 20.10%
Eon, proportion of on-parasite-target effect ([10]; at EC20): 79.90%
Eoff, proportion of off-parasite-target effect ([10]; at EC30): 21.20%
Eon, proportion of on-parasite-target effect ([10]; at EC30): 78.80%
Eoff, proportion of off-parasite-target effect ([10]; at EC40): 22.10%
Eon, proportion of on-parasite-target effect ([10]; at EC40): 77.90%
Eoff, proportion of off-parasite-target effect ([10]; at EC50): 22.8%
Eon, proportion of on-parasite-target effect ([10]; at EC50): 77.2%
Eoff, proportion of off-parasite-target effect ([10]; at EC60): 23.60%
Eon, proportion of on-parasite-target effect ([10]; at EC60): 76.40%
Eoff, proportion of off-parasite-target effect ([10]; at EC70): 24.40%
Eon, proportion of on-parasite-target effect ([10]; at EC70): 75.60%
Eoff, proportion of off-parasite-target effect ([10]; at EC80): 25.30%
Eon, proportion of on-parasite-target effect ([10]; at EC80): 74.70%
Eoff, proportion of off-parasite-target effect ([10]; at EC90): 26.60%
Eon, proportion of on-parasite-target effect ([10]; at EC90): 73.40%
Eon, proportion of on-parasite-target effect ([10]; at EC90, listed as IVM): 73.4%
EC50 ([10]; read-out: Antiparasitic efficacy (EC50), C. parvum cultured in MDR1(PTX) host cells): 4.25 µM
EC50 ([10]; read-out: Antiparasitic efficacy (EC50), C. parvum cultured in NC host cells): 3.23 µM
EC50 ([10]; read-out: Antiparasitic efficacy (EC50), C. parvum cultured in WT host cells): 3.16 µM

CC(=O)O[C@H]1C(=O)[C@@]2(C)[C@H]([C@H](OC(=O)c3ccccc3)[C@]3(O)C[C@H](OC(=O)[C@H](O)[C@@H](NC(=O)c4ccccc4)c4ccccc4)C(C)=C1C3(C)C)[C@]1(OC(C)=O)CO[C@@H]1C[C@@H]2O [Paclitaxel]
TC50 [1]: 12.73 µM
TC50 [2]: 12.51 µM
TC50 ([3]; after selection by PTX): 45.86 µM
Pct change of TC50 (vs NC) [3]: 270.7%
TC50 [4]: 16.03 µM
TC50 ([5]; after selection by NTZ): 21.94 µM
EC50 [10, 11]: 0.29 µM
EC50 [10, 12]: 0.3 µM
EC50 [10, 13]: 0.31 µM
Off-target (Eoff) rate at EC50 [10]: -1.2%
Action on parasite target (on-target) conclusion [10]: 100% on-target
Eoff, proportion of off-parasite-target effect ([10]; at EC10): -4.20%
Eoff, proportion of off-parasite-target effect ([10]; at EC20): -3.30%
Eoff, proportion of off-parasite-target effect ([10]; at EC30): -2.60%
Eoff, proportion of off-parasite-target effect ([10]; at EC40): -2.10%
Eoff, proportion of off-parasite-target effect ([10]; at EC50): −1.5%
Eoff, proportion of off-parasite-target effect ([10]; at EC60): -1.00%
Eoff, proportion of off-parasite-target effect ([10]; at EC70): -0.40%
Eoff, proportion of off-parasite-target effect ([10]; at EC80): 0.30%
Eoff, proportion of off-parasite-target effect ([10]; at EC90): 1.50%
TC50 [7]: 12.75 µM
Calculated cytotoxicity at EC50 ([7]; percent inhibition of WT host cell growth at the EC50 concentration, calculated with Eq 5 from k and h): 1.92%
TC50 [8]: 12.37 µM
TC50 [9]: 20.22 µM
